Laboratory results taken from article PMC2363230, “Human tumour-associated cell adhesion protein MN/CA IX: identification of M75 epitope and of the region mediating cell adhesion” (British Journal of Cancer, 2000).

Biological target: T1, M75 epitope of immobilized GST-MN (Homo sapiens, UniProt Q16790)
T1 construct: made in house; host or cells: bacteria
Test: Competition ELISA, peptides binding to the epitope of immobilized GST-MN (Figure 4A)
Conditions: nonapeptides 7 + 2 aa, C-terminal alanine amide

Row | Substance | activity in competition ELISA of phage display-selected peptides (in words)
1 | 2: AITFNAQYA, selected from phage display library on peptide F, eluted with M75 [compound 2] | highest activity
2 | 1: AKKMKRRKA, selected from phage display library on peptide F, eluted with M75 [compound 1] | less active
3 | 3: ASASAPVSA, selected from phage display library on peptide F, eluted with M75 [compound 3] | marginally posi- tive

Test system: adhesion of CGL1 cells to MN/CA IX
Test: Inhibition of cell adhesion to MN/CA IX dots by oligopeptides added to the media with the cell suspension (Figure 4B)
Type: cell-based, human
Conditions: nonapeptides 7 + 2 aa, C-terminal alanine amide, absorbance at 630 nm of stained attached cells

Row | Substance | activity in cell adhesion inhibition of phage display-selected peptides (in words)
4 | 2: AITFNAQYA, selected from phage display library on peptide F, eluted with M75 [compound 2] | highest activity
5 | 1: AKKMKRRKA, selected from phage display library on peptide F, eluted with M75 [compound 1] | less active
6 | 3: ASASAPVSA, selected from phage display library on peptide F, eluted with M75 [compound 3] | marginally posi- tive only in ELISA

Test system: mAb M75
Test: Competition ELISA with mAb M75 (antigen competing for M75, Figure 3)
Type: binding
Conditions: GST-MN 10 ng ml-1 adsorbed; mAb M75 ascites fluid final dilution 10-6; antibody + antigen mixtures adsorbed 1.5 h; peroxidase/OPD read-out

Row | Substance | 50% inhibition concentration in competition ELISA with M75
7 | F: EDPPGEEDLPGEEDLPGEEDLPEVC (aa 75-98 of the PG region) | 1 ng/mL
8 | D: GGSSGEDDPLGEEDLPSEEDSPC (aa 51-72 of the PG region) | 1 ng/mL

Same assay, conditions: GST-MN adsorbed; mAb M75 ascites 10-6

Row | Substance | serological activity in competition ELISA with M75 (in words)
9 | N: oligopeptide 7 + 2 aa APGEEDLPA | minimum serologically active sequence
10 | EVKPKSEEEGSLKLE [Peptide G] | inactive

Same assay, conditions: compared with peptides D and F (50% inhibition at 1 ng ml-1)

Row | Substance | fold less active than peptides D and F in competition ELISA
11 | GEEDLPSEEDSPREEDPPGEEDLPGEC [Peptide E] | 1000 x

Same assay, conditions: peptide at 100 g ml-1 (so in the source); C-terminal amide

Row | Substance | competition in ELISA with M75 at 100 g ml-1
12 | ADLPGEEDA [oligopeptide 7 + 2 aa] | negative
13 | ALPGEEDLA [oligopeptide 7 + 2 aa] | negative
14 | AEDLPGEEA [oligopeptide 7 + 2 aa] | negative
15 | AEDLPGEA [6 + 2 aa permutation] | negative
16 | AEEDLPGEA [oligopeptide 7 + 2 aa] | negative
17 | ADLPGEEA [6 + 2 aa permutation] | negative
18 | APGEEDLA [6 + 2 aa permutation] | negative
19 | AEEDLPGA [6 + 2 aa permutation] | negative
20 | AGEEDLPA [6 + 2 aa permutation] | negative
21 | ALPGEEDA [6 + 2 aa permutation] | negative
